This is an account of results in US8022076B2, “Substituted thieno[2,3-d]pyrimidines as potassium channel inhibitors” (Xention Limited, priority 2003, dated 2011).

T1 sequence (P22460 whole entry): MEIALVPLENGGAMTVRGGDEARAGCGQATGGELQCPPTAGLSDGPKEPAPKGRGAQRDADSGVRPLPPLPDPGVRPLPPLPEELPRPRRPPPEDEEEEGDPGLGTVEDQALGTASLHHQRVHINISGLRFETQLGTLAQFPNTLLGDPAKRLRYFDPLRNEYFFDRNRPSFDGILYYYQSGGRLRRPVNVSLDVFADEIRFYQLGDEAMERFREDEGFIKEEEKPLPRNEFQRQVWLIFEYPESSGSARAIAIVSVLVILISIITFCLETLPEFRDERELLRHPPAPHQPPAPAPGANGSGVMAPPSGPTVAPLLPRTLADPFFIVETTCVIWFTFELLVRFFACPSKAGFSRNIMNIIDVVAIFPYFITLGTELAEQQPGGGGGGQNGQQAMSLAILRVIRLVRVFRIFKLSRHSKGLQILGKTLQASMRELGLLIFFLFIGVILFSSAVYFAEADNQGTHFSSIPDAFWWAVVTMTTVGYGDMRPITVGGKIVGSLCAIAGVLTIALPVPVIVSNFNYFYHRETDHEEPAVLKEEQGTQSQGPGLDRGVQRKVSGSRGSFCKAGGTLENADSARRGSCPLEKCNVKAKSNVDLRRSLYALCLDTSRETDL
Sequence of hKv1.5 (P22460 whole entry): as above

The first data set concerns the target T1, human Kv1.5 (Homo sapiens, UniProt P22460).
T1 construct: expressed in transfected cells; stably transfected, blasticidin selection
Description: Kv1.5 Rb+ efflux assay. The class given is cell-based. As to conditions: inhibition of 86Rb+ efflux through Kv1.5, cells stably transfected with human Kv1.5, 10 point concentration response curves n=2. The method, then:
The pore of a potassium channel is permeable to other monovalent cations such as Rb^+ and Tl^+. Analysis of cellular efflux of potassium channel permeable ions enables potassium channel activity to be monitored directly. Cells stably transfected with cDNA for human Kv1.5 (in pEF6::VA-His-TOPO) were grown in Dulbecco's Modified Eagle media (DMEM) alpha supplemented with 10% Fetal Calf Serum (FCS), 20 μl/ml penicillin (5000 U/ml) streptomycin (5000 μg/ml), 10 μl/ml [100×] glutamine, and blasticidin (7.5 μg/ml). Cells were dispensed into 96 well cellstar TC plates and allowed to grow until a confluent monolayer was visible. On the morning of the assay run, cold media was aspirated using the TECAN plate washer, and a 50 μl media spike containing 2 μCi/ml (37 kBq/ml) ^86Rb^+ added to each well containing cells using the Shallow-Well Matrix Platemate. Plates were placed in a incubator at 37° C. for a minimum of 3 hours. Unloaded ^86Rb^+ in the “hot” media was aspirated and each well washed 4×250 μl with Earls Balanced Salt Solution (EBSS) which contained 5 mM KCl, 140 mM NaCl, 2 mM CaCl2, 1 mM MgSO4, 10 mM HEPES, and 5 mM glucose, pH 7.4, 290-300 mOsm. These cells were then pre-incubated with 50 μl of EBSS+/−test compounds for 10 minutes at room temperature. After the 10 minute incubation, 50 μl of modified EBSS which contained 145 mM KCl, 2 mM CaCl2, 1 mM MgSO4, 10 mM HEPES, 5 mM glucose, pH 7.4, 290-300 mOsm, was added, and the cells were incubated for a further 10 minutes at room temperature. The high KCl EBSS was used to depolarise cells to a membrane potential that would activate Kv1.5 channels. After the final incubation 80 μl/100 μl of the reaction from each well was transferred to equivalent wells in a Packard “Optiplate” white 96 well plate and counted in a Packard TopCount liquid scintillation counter by Cerenkov emission. Percentage inhibition ^86Rb^+ efflux through Kv1.5 was calculated by normalisation to 2.5 mM 4 amino-pyridine control block of Kv1.5. Alternatively cells were loaded with ^85Rb^+ and quantified by atomic absorption spectroscopy. IC50 determinations were derived from 10 point concentration response curves n=2 using the method described above. Data was fitted as variable slope sigmoidal fit using Graphpad Prism (V3.02) software.
The IC50 is the point on the concentration scale where inhibition reaches its midpoint. Lower therefore signals inhibition by little substance. `Nc1nc(NCc2ccccn2)c2c(-c3ccccc3)csc2n1` [Example 192, 5-Phenyl-N-4-pyridin-2-ylmethyl-thieno[2,3-d]pyrimidine-2,4-diamine] yielded an IC50 of 2.18 µM.
`CC(Nc1ncnc2scc(-c3ccccc3)c12)c1ccccn1` (centres unmarked) [Example 149, (5-Phenyl-thieno[2,3-d]pyrimidin-4-yl)-(1-pyridin-2-yl-ethyl)-amine] displayed an IC50 of 0.37 µM.
For `COCCNc1nc(NCc2ccccn2)c2c(-c3ccccc3)csc2n1` [Example 189, N^2-(2-Methoxyethyl)-5-phenyl-N^4-(pyridin-2-ylmethyl)thieno[2,3-d]pyrimidine-2,4-diamine], the IC50 stood at 0.28 µM.
`COc1ccc(-c2csc3ncnc(NCc4ccccn4)c23)cc1` [Example 138, [5-(4-Methoxy-phenyl)-thieno[2,3-d]pyrimidin-4-yl]-pyridin-2-ylmethyl-amine]: the IC50 was 0.22 µM.
With `CN(C)c1nc(NCc2ccccn2)c2c(-c3ccccc3)csc2n1` [Example 198, N^2,N^2-Dimethyl-5-phenyl-N^4-pyridin-2-ylmethyl-thieno[2,3-d]pyrimidine-2,4-diamine], the IC50 amounted to 0.57 µM.

The next data set addresses hKv1.5 (Homo sapiens, UniProt P22460). The experiment in a line: Kv1.5 Autopatch electrophysiology (whole cell patch-clamp). As to conditions: hKv1.5 current, compound at 1 μM. In kind it is cell-based. As to the method: The external bathing solution contained (in mM): 150 NaCl, 10 KCl, […], 3 MgCl2, 1 CaCl2, 10 HEPES, pH 7.4. Patch pipettes were filled with an electrode solution of composition (in mM): 160 KCl, 0.5 MgCl2, 10 HEPES, 1 EGTA, pH 7.4 with KOH.
Compounds were dissolved in DMSO (100%) and made up in the external bather at a concentration of 1 μM. All experiments were conducted at room temperature (22-24° C.).
A cell suspension (10 ml), with a density of 100,000 cells/ml, was aliquoted into a 15 ml centrifuge tube and transferred to an incubator (37° C., 5% CO2) for approximately one hour before use. Following 60 min incubation, a tube was taken and centrifuged at 1000 rpm for 4 mins at room temperature. 9.5 ml supernatant was thence discarded, leaving a cell pellet at the bottom of the tube. The pellet was then resuspended using 100 μl of cold (4° C.), filtered (0.22 μm), 0.2% BSA/bather solution (0.02 g BSA/10 ml bather). The bottom of the tube was manually agitated gently until the solution became cloudy with cells. The 100 μl cell resuspension solution was then stored on the bench at 4° C. (using a Peltier-based temperature control device) until used.
A length of capillary glass (1B150E-4, WPI) was dipped into the cell suspension solution, such that ˜3 cm column of fluid was taken up by capillary action. A Ag/AgCl wire was dropped into the non-dipped end of the capillary also. The outside of the solution-filled end of the capillary was then dried and the capillary was loaded into the AutoPatch™
Borosilicate glass patch pipettes (from 1.5 mm OD, thin-walled filamented, GC150-TF capillary glass, Harvard) were pulled using a DMZ pipette puller (Zeitz Instruments), and were back-filled using the internal pipette solution, being careful that no bubbles remain at the tip or in the body of the pipette. […]
Electrophysiology voltage-step protocols and analysis of data was performed as follows. […] Currents were analysed using Pulsefit software (v8.54, HEKA, Germany), with the total charge measured during the whole of the voltage step. […]
As a reminder, the % Inhibition is the share of the control response that was lost under treatment. On to “3-{5-Phenyl-4-[(pyridin-2-ylmethyl)-amino]-thieno[2,3-d]pyrimidin-2-ylamino)}-propane-1,2-diol [Example 214]”, for which the “% Inhibition at 1 μM” value is 87.0%.
Consider `COCc1nc(NCc2ccccn2)c2c(-c3ccccc3)csc2n1` [Example 305, (2-Methoxymethyl-5-phenylthien[2,3-d]primidin-4-yl)pyridin-2-ylmethylamine], for which the “% Inhibition at 1 μM” value is recorded as 94.0%.
As a reminder, the inhibition is how much of the control response was suppressed. Higher therefore signals a strong effect. Compound `c1ccc(-c2csc3ncnc(NCC4CCCCC4)c23)cc1` [Example 89, Cyclohexylmethyl-(5-phenyl-thieno[2,3-d]pyrimidin-4-yl)-amine] displayed an inhibition at 1 µM of 73.4%.

System in the next data set: not given
Assay: not given
Settings: not given
Usually melting point stands for the temperature, or range, at which the solid turns liquid. As for `Cc1nc(NCc2ccccn2)c2c(-c3ccccc3)csc2n1` [Example 101, 2-Methyl-N-(2-pyridyl)methyl-5-phenylthieno[2,3-d]pyrimidin-4-ylamine], the melting point was in the range of 110 to 112 °C.
Take `OCCc1nc(NCc2ccccn2)c2c(-c3ccccc3)csc2n1` [Example 250, 2-{5-Phenyl-4-[(pyridin-2-ylmethyl)amino]thieno[2,3-d]pyrimidin-2-yl}ethanol]: the melting point was in the range of 90 to 92 °C.
Same read-out and setting: under `c1ccc(-c2csc3ncnc(NCc4ccco4)c23)cc1` [Example 83, Furan-2-ylmethyl-(5-phenyl-thieno[2,3-d]pyrimidin-4-yl)-amine] stands 77 to 79 °C; under `ClCc1nc(NCc2ccccn2)c2c(-c3ccccc3)csc2n1` [Example 301, (2-Chloromethyl-5-phenylthieno[2,3-d]pyrimidin-4-yl)pyridin-2-ylmethylamine], 97 to 99 °C; under `Cn1ccc2cc(-c3csc4ncnc(NCc5ccccn5)c34)ccc21` [Example 312, [5-(1-Methyl-1H-indol-5-yl)thieno[2,3-d]pyrimidin-4-yl]pyridin-2-ylmethylamine], 184 to 185 °C.
On to `c1ccc(-c2csc3nc(NCC4CC4)nc(NCc4ccccn4)c23)cc1` [Example 188, N^2-Cyclopropylmethyl-5-phenyl-N^4-pyridin-2-ylmethyl-thieno[2,3-d]pyrimidine-2,4-diamine], for which the melting point was in the range of 109 to 111 °C.
